Laboratory results from ChEMBL document CHEMBL1201862, “PubChem BioAssay data set” (2004).
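In this assay, cells in 96-well plates receive the compound at five concentrations for 48 hours. Endpoints are linearly interpolated between the surrounding concentrations. GI50: concentration for 50% inhibition of growth.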 The source made the active and inactive calls. No stated cut-off is given here; in the data, active = GI50 up to about 1.1 µM and inactive = higher.

Key:
Test in all cases: NCI-60 cell line screen, 48 h
COLO 205 = tested on: COLO 205
M14 = tested on: M14
SK-MEL-2 = tested on: SK-MEL-2
SF-268 = tested on: SF-268
SW-620 = tested on: SW-620
SN12C = tested on: SN12C
HOP-62 = tested on: HOP-62
786-0 = tested on: 786-0
A549 = tested on: A549
SNB-75 = tested on: SNB-75
ACHN = tested on: ACHN
OVCAR-5 = tested on: OVCAR-5
TK-10 = tested on: TK-10
SF-539 = tested on: SF-539
Malme-3M = tested on: Malme-3M
MDA-MB-435 = tested on: MDA-MB-435
IGROV-1 = tested on: IGROV-1
EKVX = tested on: EKVX
PC-3 = tested on: PC-3
HT-29 = tested on: HT-29
SNB-19 = tested on: SNB-19
MDA-N = tested on: MDA-N
RXF 393 = tested on: RXF 393
U-251 = tested on: U-251
NCI-H522 = tested on: NCI-H522
SK-OV-3 = tested on: SK-OV-3
SR = tested on: SR
K562 = tested on: K562
LOX IMVI = tested on: LOX IMVI
A498 = tested on: A498
MOLT-4 = tested on: MOLT-4
UACC-62 = tested on: UACC-62
MDA-MB-231 = tested on: MDA-MB-231
HCC 2998 = tested on: HCC 2998
OVCAR-3 = tested on: OVCAR-3
Hs-578T = tested on: Hs-578T
NCI/ADR-RES = tested on: NCI/ADR-RES
NCI-H226 = tested on: NCI-H226
SF-295 = tested on: SF-295
CCRF-CEM = tested on: CCRF-CEM
UO-31 = tested on: UO-31
DU-145 = tested on: DU-145
OVCAR-8 = tested on: OVCAR-8
SK-MEL-5 = tested on: SK-MEL-5
RPMI-8226 = tested on: RPMI-8226
MCF7 = tested on: MCF7
KM12 = tested on: KM12
HL-60 = tested on: HL-60
SK-MEL-28 = tested on: SK-MEL-28
NCI-H23 = tested on: NCI-H23
OVCAR-4 = tested on: OVCAR-4
BT-549 = tested on: BT-549
T47D = tested on: T47D
HCT-15 = tested on: HCT-15
NCI-H460 = tested on: NCI-H460
UACC-257 = tested on: UACC-257
HCT-116 = tested on: HCT-116
CAKI-1 = tested on: CAKI-1

SMILES: O=C1NC2(CCCCC2)N=C2C(Cl)CCCC12Cl (stereo unspecified)
- GI50 (COLO 205): > 100 µM (inactive)
- GI50 (M14): > 100 µM (inactive)
- GI50 (SK-MEL-2): > 100 µM (inactive)
- GI50 (SF-268): > 100 µM (inactive)
- GI50 (SW-620): > 100 µM (inactive)
- GI50 (SN12C): > 100 µM (inactive)
- GI50 (HOP-62): > 100 µM (inactive)
- GI50 (786-0): > 100 µM (inactive)
- GI50 (A549): 0.0535 µM (active)
- GI50 (SNB-75): > 100 µM (inactive)
- GI50 (ACHN): > 100 µM (inactive)
- GI50 (OVCAR-5): > 100 µM (inactive)
- GI50 (TK-10): > 100 µM (inactive)
- GI50 (SF-539): > 100 µM (inactive)
- GI50 (Malme-3M): > 100 µM (inactive)
- GI50 (MDA-MB-435): > 100 µM (inactive)
- GI50 (IGROV-1): > 100 µM (inactive)
- GI50 (EKVX): > 100 µM (inactive)
- GI50 (PC-3): > 100 µM (inactive)
- GI50 (HT-29): > 100 µM (inactive)
- GI50 (SNB-19): > 100 µM (inactive)
- GI50 (MDA-N): > 100 µM (inactive)
- GI50 (RXF 393): > 100 µM (inactive)
- GI50 (U-251): > 100 µM (inactive)
- GI50 (NCI-H522): > 100 µM (inactive)
- GI50 (SK-OV-3): > 100 µM (inactive)
- GI50 (SR): > 100 µM (inactive)
- GI50 (K562): > 100 µM (inactive)
- GI50 (LOX IMVI): > 100 µM (inactive)
- GI50 (A498): > 100 µM (inactive)
- GI50 (MOLT-4): > 100 µM (inactive)
- GI50 (UACC-62): > 100 µM (inactive)
- GI50 (MDA-MB-231): > 100 µM (inactive)
- GI50 (HCC 2998): > 100 µM (inactive)
- GI50 (OVCAR-3): > 100 µM (inactive)
- GI50 (Hs-578T): > 100 µM (inactive)
- GI50 (NCI/ADR-RES): > 100 µM (inactive)
- GI50 (NCI-H226): > 100 µM (inactive)
- GI50 (SF-295): > 100 µM (inactive)
- GI50 (CCRF-CEM): > 100 µM (inactive)
- GI50 (UO-31): > 100 µM (inactive)
- GI50 (DU-145): > 100 µM (inactive)
- GI50 (OVCAR-8): > 100 µM (inactive)
- GI50 (SK-MEL-5): > 100 µM (inactive)
- GI50 (RPMI-8226): > 100 µM (inactive)
- GI50 (MCF7): > 100 µM (inactive)
- GI50 (KM12): > 100 µM (inactive)
- GI50 (HL-60): > 100 µM (inactive)
- GI50 (SK-MEL-28): > 100 µM (inactive)
- GI50 (NCI-H23): > 100 µM (inactive)
- GI50 (OVCAR-4): > 100 µM (inactive)
- GI50 (BT-549): > 100 µM (inactive)
- GI50 (T47D): > 100 µM (inactive)
- GI50 (HCT-15): > 100 µM
- GI50 (NCI-H460): > 100 µM (inactive)

SMILES: Cc1cn(CC2(CO)CCC2)c(=O)[nH]c1=O
- GI50 (COLO 205): > 100 µM (inactive)
- GI50 (SK-MEL-2): > 100 µM (inactive)
- GI50 (SF-268): > 10 µM (inactive)
- GI50 (SW-620): > 100 µM (inactive)
- GI50 (SN12C): > 100 µM (inactive)
- GI50 (HOP-62): > 100 µM (inactive)
- GI50 (786-0): > 100 µM (inactive)
- GI50 (UACC-257): > 100 µM (inactive)
- GI50 (A549): > 100 µM (inactive)
- GI50 (SNB-75): > 100 µM (inactive)
- GI50 (ACHN): > 100 µM (inactive)
- GI50 (OVCAR-5): > 100 µM (inactive)
- GI50 (TK-10): > 100 µM (inactive)
- GI50 (SF-539): > 100 µM (inactive)
- GI50 (Malme-3M): > 100 µM (inactive)
- GI50 (MDA-MB-435): > 100 µM (inactive)
- GI50 (IGROV-1): > 100 µM (inactive)
- GI50 (EKVX): > 100 µM (inactive)
- GI50 (PC-3): > 100 µM (inactive)
- GI50 (HT-29): > 100 µM (inactive)
- GI50 (MDA-N): > 100 µM (inactive)
- GI50 (RXF 393): > 100 µM (inactive)
- GI50 (U-251): > 100 µM (inactive)
- GI50 (NCI-H522): > 100 µM (inactive)
- GI50 (SK-OV-3): > 100 µM (inactive)
- GI50 (SR): > 100 µM (inactive)
- GI50 (K562): > 100 µM (inactive)
- GI50 (LOX IMVI): > 100 µM (inactive)
- GI50 (HCT-116): > 100 µM (inactive)
- GI50 (A498): > 100 µM (inactive)
- GI50 (MOLT-4): > 100 µM (inactive)
- GI50 (UACC-62): > 100 µM (inactive)
- GI50 (MDA-MB-231): > 100 µM (inactive)
- GI50 (HCC 2998): > 100 µM (inactive)
- GI50 (OVCAR-3): > 100 µM (inactive)
- GI50 (Hs-578T): > 100 µM (inactive)
- GI50 (NCI/ADR-RES): > 100 µM (inactive)
- GI50 (NCI-H226): > 100 µM (inactive)
- GI50 (SF-295): > 100 µM (inactive)
- GI50 (CCRF-CEM): > 100 µM (inactive)
- GI50 (UO-31): > 100 µM (inactive)
- GI50 (DU-145): > 100 µM (inactive)
- GI50 (OVCAR-8): > 100 µM (inactive)
- GI50 (SK-MEL-5): > 100 µM (inactive)
- GI50 (RPMI-8226): > 100 µM (inactive)
- GI50 (MCF7): > 100 µM (inactive)
- GI50 (KM12): > 100 µM (inactive)
- GI50 (HL-60): > 100 µM (inactive)
- GI50 (SK-MEL-28): > 100 µM (inactive)
- GI50 (NCI-H23): > 100 µM (inactive)
- GI50 (OVCAR-4): > 100 µM (inactive)
- GI50 (BT-549): > 100 µM (inactive)
- GI50 (T47D): > 100 µM (inactive)
- GI50 (CAKI-1): > 100 µM (inactive)
- GI50 (HCT-15): > 100 µM
- GI50 (NCI-H460): > 100 µM (inactive)
